Data: publication PMC6017562, “Aethiopinolones A–E, New Pregnenolone Type Steroids from the East African Basidiomycete Fomitiporia aethiopica” (Molecules : A Journal of Synthetic Chemistry and Natural …, 2018)
Values after ≈ are worked out from the molar mass of the structure shown.

Tests used:
[1] = MTT cytotoxicity assay, PC-3; assay type: cell-based, human; details: human, PC-3 prostate cancer cells, PC-3 cells, 5 days incubation
Description: (§1) In vitro cytotoxicity (IC50) of the pure compounds 1–5 was determined against a panel of mammalian cell lines including mouse fibroblast L929, HeLa (KB-3-1), epidermoid carcinoma cells A431, breast cancer cells MCF-7, prostate cancer cells PC-3 and adenocarcinomic human alveolar basal epithelial cells A549. The cell lines were cultured in DMEM (Gibco, ThermoFisher Scientific, Hilden, Germany) and MCF-7 in RPMI (Lonza, Cologne, Germany) media, all supplemented with 10% of fetal bovine serum (Gibco) under 10% CO2 at 37 °C. The cytotoxicity assay was performed according to the MTT (3-(4,5-dimethylthiazol-2-yl)-2,5 diphenyltetrazolium bromide) method in 96-well microplates (ThermoFisher Scientific). Briefly 60 μL aliquots of serial dilutions from an initial stock of 1 mg/mL in MeOH of the test compounds were added to 120 μL aliquots of a cell suspension (5.0 × 10^4 cells/mL) in 96-well microplates. After 5 days incubation, a MTT assay was performed, and the absorbance measured at 590 nm using an ELISA plate reader (Victor, PerkinElmer, Überlingen, Germany). The concentration at which the growth of cells was inhibited to 50% of the control (IC50) was obtained from the dose response curves. The negative control was methanol.

[2] = MTT cytotoxicity assay, KB3.1; assay type: cell-based, human; details: human, HeLa (KB-3-1) cells, KB3.1 cells, 5 days incubation
Description: as §1

[3] = MTT cytotoxicity assay, A431; assay type: cell-based, human; details: human, A431 epidermoid carcinoma cells, 5 days incubation
Description: as §1

[4] = MTT cytotoxicity assay, MCF-7; assay type: cell-based, human; details: human, MCF-7 breast cancer cells, MCF-7 cells, 5 days incubation
Description: as §1

[5] = test system: various mammalian cell lines; assay: Cytotoxic effects against the panel of mammalian cell lines (overall statement); assay type: cell-based; details: all tested cell lines of Table 3
Description: as §1

[6] = MTT cytotoxicity assay, SKOV-3; assay type: cell-based, human; details: human, SKOV-3 cells, 5 days incubation
[7] = MTT cytotoxicity assay, L929; assay type: cell-based, mouse; details: mouse, L929 fibroblast cells, 5 days incubation
Description: as §1

[8] = MTT cytotoxicity assay, A549; assay type: cell-based, human; details: human, A549 alveolar basal epithelial adenocarcinoma cells, 5 days incubation
Description: as §1

[9] = test system: prostate cancer cells PC-3; assay: MTT cytotoxicity assay, PC-3; assay type: cell-based, human; details: PC-3 cells, 5 days incubation
Description: as §1

[10] = test system: adenocarcinomic human alveolar basal epithelial cells A549; assay: MTT cytotoxicity assay, A549; assay type: cell-based; details: 5 days incubation
Description: as §1

HeLa (KB-3-1) = assay: MTT cytotoxicity assay, KB3.1; assay type: cell-based, human; details: KB3.1 cells, 5 days incubation
Description: as §1

[11] = test system: epidermoid carcinoma cells A431; assay: MTT cytotoxicity assay, A431; assay type: cell-based, human; details: 5 days incubation
Description: as §1

[12] = test system: breast cancer cells MCF-7; assay: MTT cytotoxicity assay, MCF-7; assay type: cell-based, human; details: MCF-7 cells, 5 days incubation
Description: as §1

SKOV-3 = assay: MTT cytotoxicity assay, SKOV-3; assay type: cell-based, human; details: SKOV-3 cells, 5 days incubation
mouse fibroblast L929 = assay: MTT cytotoxicity assay, L929; assay type: cell-based; details: L929 cells, 5 days incubation
Description: as §1

Row | Compound | IC50 at 5 days [1] | IC50 at 5 days [2] | IC50 at 5 days [3] | IC50 at 5 days [4] | Cytotoxic activity against the tested cell lines (in words) [5] | IC50 at 5 days [6] | IC50 at 5 days [7] | IC50 at 5 days [8] | Cytotoxicity IC50 [9] | Cytotoxicity IC50 [10] | Cytotoxicity IC50 (HeLa (KB-3-1)) | Cytotoxicity IC50 [11] | Cytotoxicity IC50 [12] | Cytotoxicity IC50 (SKOV-3) | Cytotoxicity IC50 (mouse fibroblast L929)
1 | CC(=O)C1C(O)CC2C3=CC(=O)C4CC(O)CCC4(C)C3(O)CCC21C (centres unmarked) [Compound 1, Aethiopinolone A] | 8 µg/mL (≈ 22.1 µM) | 19 µg/mL (≈ 52.4 µM) | 22 µg/mL (≈ 60.7 µM) | 20 µg/mL (≈ 55.2 µM) | strongest activity | 26 µg/mL (≈ 71.7 µM) | 28 µg/mL (≈ 77.2 µM) | – | – | – | – | – | – | – | –
2 | CC(=O)[C@H]1[C@H](O)C[C@H]2C3=CC(=O)[C@H]4C[C@H](O)CC[C@]4(C)[C@@]3(O)CC[C@@]21C [Compound 2, Aethiopinolone B] | > 70 µg/mL | 39 µg/mL (≈ 108 µM) | > 70 µg/mL | > 70 µg/mL | – | > 70 µg/mL | 45 µg/mL (≈ 124 µM) | > 70 µg/mL | – | – | – | – | – | – | –
3 | CC(=O)C1=CC[C@H]2C3=CC(=O)[C@H]4C[C@@H](O)CC[C@]4(C)[C@@]3(O)CC[C@]12C [Compound 3, Aethiopinolone C] | 45 µg/mL (≈ 131 µM) | 35 µg/mL (≈ 102 µM) | 27 µg/mL (≈ 78.4 µM) | 18 µg/mL (≈ 52.3 µM) | moderate activity | 38 µg/mL (≈ 110 µM) | 40 µg/mL (≈ 116 µM) | 70 µg/mL (≈ 203 µM) | – | – | – | – | – | – | –
4 | CC(=O)C1=CC[C@H]2C3=CC(=O)[C@H]4C[C@H](O)CC[C@]4(C)[C@@]3(O)CC[C@]12C [Compound 4, Aethiopinolone D] | 40 µg/mL (≈ 116 µM) | 39 µg/mL (≈ 113 µM) | 21 µg/mL (≈ 61 µM) | 17 µg/mL (≈ 49.4 µM) | moderate activity | 36 µg/mL (≈ 105 µM) | 45 µg/mL (≈ 131 µM) | 52 µg/mL (≈ 151 µM) | – | – | – | – | – | – | –
5 | CC(=O)C1=CC[C@H]2C3=CC(=O)[C@H]4CC(=O)CC[C@]4(C)[C@@]3(O)CC[C@]12C [Compound 5, Aethiopinolone E] | 39 µg/mL (≈ 114 µM) | 33 µg/mL (≈ 96.4 µM) | 14 µg/mL (≈ 40.9 µM) | 16 µg/mL (≈ 46.7 µM) | – | 34 µg/mL (≈ 99.3 µM) | 40 µg/mL (≈ 117 µM) | 43 µg/mL (≈ 126 µM) | – | – | – | – | – | – | –
6 | C/C(=C\c1csc(C)n1)[C@@H]1C[C@@H]2O[C@]2(C)CCC[C@H](C)[C@H](O)[C@@H](C)C(=O)C(C)(C)[C@@H](O)CC(=O)O1 [Epothilon B, reference compound] | – | – | – | – | – | – | – | – | 0.0002 µg/mL | 0.005 µg/mL | 0.00022 µg/mL | 0.0006 µg/mL | 0.0004 µg/mL | 0.0014 µg/mL | 0.0014 µg/mL
